Measured values from ChEMBL document CHEMBL1909046, “DrugMatrix in vitro pharmacology data”.

Assays:
[1] = biological target: T1, Alpha-1D adrenergic receptor (Homo sapiens, UniProt P25100); format: cell membranes, HEK293, Membrane; details: for Ki: read-out: Ki; for all read-outs here: in other assays of this panel Not Active means under 50% inhibition at 10 µM
T1 sequence (P25100 whole entry): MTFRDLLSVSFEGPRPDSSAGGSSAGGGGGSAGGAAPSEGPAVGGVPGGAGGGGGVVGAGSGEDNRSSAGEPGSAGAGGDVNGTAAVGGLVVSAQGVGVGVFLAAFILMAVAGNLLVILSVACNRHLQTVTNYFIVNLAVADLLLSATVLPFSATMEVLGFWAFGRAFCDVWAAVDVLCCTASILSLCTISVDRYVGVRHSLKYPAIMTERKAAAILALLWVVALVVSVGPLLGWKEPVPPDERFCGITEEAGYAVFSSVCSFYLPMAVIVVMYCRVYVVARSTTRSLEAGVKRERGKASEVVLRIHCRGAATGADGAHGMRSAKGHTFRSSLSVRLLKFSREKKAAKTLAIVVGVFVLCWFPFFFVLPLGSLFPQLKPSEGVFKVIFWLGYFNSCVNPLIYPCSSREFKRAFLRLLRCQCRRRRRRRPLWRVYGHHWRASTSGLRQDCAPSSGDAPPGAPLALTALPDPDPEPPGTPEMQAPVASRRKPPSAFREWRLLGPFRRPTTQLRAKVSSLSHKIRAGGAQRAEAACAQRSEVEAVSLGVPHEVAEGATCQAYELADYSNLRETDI

[2] = biological target: Aldo-keto reductase family 1 member B1 (Rattus norvegicus, UniProt P07943); test: biochemical; format: tissue-based, Lens of camera-type eye;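 note: inhibition of aldose reductase enzyme activity, measured with DL-glyceraldehyde as the substrate; in other assays of this panel Not Active means under 50% inhibition at 10 µM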
[3] = DRUGMATRIX: ATPase, Na+/K+ enzyme inhibition (substrate: ATP); format: tissue-based, Sus scrofa, Heart; details: Not Active = under 50% inhibition at 10 µM
[4] = biological target: T2, Vasoactive intestinal polypeptide receptor 1 (Homo sapiens, UniProt P32241); format: cell membranes, Membrane; details: ht-29; note: in other assays of this panel Not Active means under 50% inhibition at 10 µM
T2 sequence (P32241 whole entry): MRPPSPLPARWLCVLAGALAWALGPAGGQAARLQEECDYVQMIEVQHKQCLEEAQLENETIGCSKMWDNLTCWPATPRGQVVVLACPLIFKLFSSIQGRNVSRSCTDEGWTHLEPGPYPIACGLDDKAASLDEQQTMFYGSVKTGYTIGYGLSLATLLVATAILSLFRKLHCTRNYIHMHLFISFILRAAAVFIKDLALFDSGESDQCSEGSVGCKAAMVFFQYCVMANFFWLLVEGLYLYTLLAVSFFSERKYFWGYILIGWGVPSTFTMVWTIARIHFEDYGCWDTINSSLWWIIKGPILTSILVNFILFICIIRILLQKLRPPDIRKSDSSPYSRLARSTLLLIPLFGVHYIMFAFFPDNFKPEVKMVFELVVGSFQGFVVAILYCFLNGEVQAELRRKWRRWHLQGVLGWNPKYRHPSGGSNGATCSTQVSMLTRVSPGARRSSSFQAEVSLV

[5] = DRUGMATRIX: GABAA, Flunitrazepam, Central radioligand binding (ligand: [3H] Flunitrazepam); format: cell membranes, Rattus norvegicus, Wistar, Brain, Membrane; details: Not Active = under 50% inhibition at 10 µM
[6] = biological target: T3, Receptor-type tyrosine-protein phosphatase C (Homo sapiens, UniProt P08575); parameters: species or system Escherichia coli;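 note: inhibition of CD45 enzyme activity measured using DiFMUP as substrate; in other assays of this panel Not Active means under 50% inhibition at 10 µM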
T3 sequence (P08575 whole entry): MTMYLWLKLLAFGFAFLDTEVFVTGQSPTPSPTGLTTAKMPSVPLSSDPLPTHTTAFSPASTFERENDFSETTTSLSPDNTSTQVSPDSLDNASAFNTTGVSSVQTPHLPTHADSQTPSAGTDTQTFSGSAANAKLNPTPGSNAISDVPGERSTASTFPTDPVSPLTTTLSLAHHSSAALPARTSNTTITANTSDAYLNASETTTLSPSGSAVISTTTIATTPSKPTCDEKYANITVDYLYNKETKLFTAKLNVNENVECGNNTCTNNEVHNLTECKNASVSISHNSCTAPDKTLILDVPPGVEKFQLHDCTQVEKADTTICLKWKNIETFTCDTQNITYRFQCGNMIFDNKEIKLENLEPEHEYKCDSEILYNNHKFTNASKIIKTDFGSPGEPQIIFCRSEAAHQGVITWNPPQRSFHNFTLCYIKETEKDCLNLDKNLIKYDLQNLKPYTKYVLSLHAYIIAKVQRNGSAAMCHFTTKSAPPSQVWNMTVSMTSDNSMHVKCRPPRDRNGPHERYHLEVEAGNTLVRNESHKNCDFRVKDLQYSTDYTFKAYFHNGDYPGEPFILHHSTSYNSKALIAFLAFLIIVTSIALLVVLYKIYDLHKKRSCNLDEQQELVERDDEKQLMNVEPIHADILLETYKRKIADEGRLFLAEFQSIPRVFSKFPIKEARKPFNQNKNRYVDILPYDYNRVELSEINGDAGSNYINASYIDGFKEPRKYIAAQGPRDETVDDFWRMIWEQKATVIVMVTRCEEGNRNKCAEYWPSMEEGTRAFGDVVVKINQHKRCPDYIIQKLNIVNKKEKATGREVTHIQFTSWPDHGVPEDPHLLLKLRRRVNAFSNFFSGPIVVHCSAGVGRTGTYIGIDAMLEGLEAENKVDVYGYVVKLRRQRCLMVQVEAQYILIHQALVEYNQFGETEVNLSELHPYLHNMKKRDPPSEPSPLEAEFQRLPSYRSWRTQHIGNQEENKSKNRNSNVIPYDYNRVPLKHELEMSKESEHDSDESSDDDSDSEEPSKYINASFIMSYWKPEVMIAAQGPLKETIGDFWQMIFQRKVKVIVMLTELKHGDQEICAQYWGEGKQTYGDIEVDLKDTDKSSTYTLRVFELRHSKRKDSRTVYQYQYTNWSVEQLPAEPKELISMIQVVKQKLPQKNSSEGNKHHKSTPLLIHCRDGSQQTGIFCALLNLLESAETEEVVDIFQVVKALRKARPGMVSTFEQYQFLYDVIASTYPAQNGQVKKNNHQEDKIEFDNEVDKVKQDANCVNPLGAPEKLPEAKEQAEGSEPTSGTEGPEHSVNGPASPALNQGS

[7] = DRUGMATRIX: Purinergic P2X radioligand binding (ligand: [3H] alpha, beta-Methylene-ATP); format: cell membranes, Oryctolagus cuniculus, New Zealand albino, Urinary bladder, Membrane; details: Not Active = under 50% inhibition at 10 µM

| SMILES | IC50 ([1]; hek293) | IC50 ([2]; read-out: IC50) | IC50 [3] | Ki [3] | IC50 [4] | IC50 [5] | Ki [5] | IC50 [6] | IC50 [7] | Ki [7] | IC50 [2] | IC50 ([1]; read-out: IC50) | Ki [1] |
| --- | --- | --- | --- | --- | --- | --- | --- | --- | --- | --- | --- | --- | --- |
| CC1=C(CC(=O)O)c2cc(F)ccc2/C1=C\c1ccc([S+](C)[O-])cc1 (stereo not drawn) | Not Active | 0.435 µM | Not Active | Not Active | Not Active | Not Active | Not Active | Not Active | Not Active | Not Active | – | – | – |
| N[C@H](CSC(=S)NCc1ccccc1)C(=O)O | Not Active | – | Not Active | Not Active | Not Active | Not Active | Not Active | Not Active | Not Active | Not Active | Not Active | – | – |
| CC(=O)N[C@@H]1[C@H](Oc2c3cc4cc2Oc2ccc(cc2Cl)[C@@H](O[C@@H]2O[C@@H](CO)[C@@H](O)[C@H](O)[C@@H]2NC(C)=O)[C@@H]2NC(=O)[C@H](NC(=O)[C@@H]4NC(=O)[C@H]4NC(=O)[C@@H](Cc5ccc(c(Cl)c5)O3)NC(=O)[C@H](N)c3ccc(O)c(c3)Oc3cc(O)cc4c3)c3ccc(O)c(c3)-c3c(O[C@H]4O[C@H](CO)[C@@H](O)[C@@H](O)[C@@H]4O)cc(O)cc3[C@@H](C(=O)O)NC2=O)O[C@@H](CO)[C@@H](O)[C@@H]1O | Not Active | – | Not Active | Not Active | Not Active | Not Active | Not Active | Not Active | Not Active | Not Active | Not Active | – | – |
| Clc1ccc2c(c1)C(N1CCNCC1)=Nc1ccccc1O2 [AMOXAPINE] | – | – | – | – | Not Active | – | – | Not Active | – | – | Not Active | 0.306 µM | 0.15 µM |
| COc1cc2c(c(OC)c1OC)-c1ccc(OC)c(=O)cc1[C@@H](NC(C)=O)CC2 [COLCHICINE] | Not Active | – | – | – | Not Active | – | – | Not Active | – | – | Not Active | – | – |
| CN1CCC(=C2c3ccccc3C=Cc3ccccc32)CC1 [CYPROHEPTADINE] | – | – | – | – | Not Active | – | – | Not Active | – | – | Not Active | 0.107 µM | 0.053 µM |
| CC/C(=C(/CC)c1ccc(O)cc1)c1ccc(O)cc1 [DIETHYLSTILBESTROL] | – | – | – | – | Not Active | – | – | Not Active | – | – | Not Active | 10.8 µM | 5.32 µM |
| CC(=O)N1CCN(c2ccc(OCC3COC(Cn4ccnc4)(c4ccc(Cl)cc4Cl)O3)cc2)CC1 (stereo not drawn) [KETOCONAZOLE] | Not Active | – | Not Active | Not Active | Not Active | Not Active | Not Active | Not Active | Not Active | Not Active | Not Active | – | – |
| C=CCN1CC[C@]23c4c5ccc(O)c4O[C@H]2C(=O)CC[C@@]3(O)[C@H]1C5 [NALOXONE] | Not Active | – | – | – | Not Active | – | – | Not Active | – | – | Not Active | – | – |
| COCCOC(=O)C1=C(C)NC(C)=C(C(=O)OC(C)C)C1c1cccc([N+](=O)[O-])c1 (stereo not drawn) [NIMODIPINE] | Not Active | – | Not Active | Not Active | Not Active | Not Active | Not Active | Not Active | Not Active | Not Active | Not Active | – | – |
| CC(C)NCC(O)COc1cccc2ccccc12 (stereo not drawn) [PROPRANOLOL] | Not Active | – | – | – | Not Active | – | – | Not Active | – | – | Not Active | – | – |
| COCCCOc1ccnc(C[S+]([O-])c2nc3ccccc3[nH]2)c1C (stereo not drawn) [RABEPRAZOLE] | Not Active | – | Not Active | Not Active | Not Active | Not Active | Not Active | Not Active | Not Active | Not Active | Not Active | – | – |
| O=C(c1ccc(OCCN2CCCCC2)cc1)c1c(-c2ccc(O)cc2)sc2cc(O)ccc12 [RALOXIFENE] | – | – | Not Active | Not Active | Not Active | Not Active | Not Active | Not Active | Not Active | Not Active | Not Active | 0.973 µM | 0.478 µM |
| CNC(=C[N+](=O)[O-])NCCSCc1ccc(CN(C)C)o1 [RANITIDINE] | Not Active | – | Not Active | Not Active | Not Active | Not Active | Not Active | Not Active | Not Active | Not Active | Not Active | – | – |
| CO[C@H]1/C=C/O[C@@]2(C)Oc3c(C)c(O)c4c(c3C2=O)C2=NC3(CCN(CC(C)C)CC3)NC2=C(NC(=O)/C(C)=C\C=C\[C@H](C)[C@H](O)[C@@H](C)[C@@H](O)[C@@H](C)[C@H](OC(C)=O)[C@@H]1C)C4=O [RIFABUTIN] | Not Active | – | Not Active | Not Active | Not Active | Not Active | Not Active | Not Active | Not Active | Not Active | Not Active | – | – |
| CC(C)c1nc(CN(C)C(=O)N[C@H](C(=O)N[C@@H](Cc2ccccc2)C[C@H](O)[C@H](Cc2ccccc2)NC(=O)OCc2cncs2)C(C)C)cs1 [RITONAVIR] | Not Active | – | Not Active | Not Active | Not Active | Not Active | Not Active | Not Active | Not Active | Not Active | Not Active | – | – |
| CC(C)CC(N(C)C)C1(c2ccc(Cl)cc2)CCC1 (stereo not drawn) [SIBUTRAMINE] | Not Active | – | Not Active | Not Active | Not Active | Not Active | Not Active | Not Active | Not Active | Not Active | Not Active | – | – |
| [H]/N=C(/N)N[C@H]1[C@H](O)[C@@H](O)[C@H](O[C@@H]2O[C@@H](C)[C@](O)(C=O)[C@H]2O[C@@H]2O[C@@H](CO)[C@H](O)[C@@H](O)[C@@H]2NC)[C@@H](N/C(N)=N\[H])[C@@H]1O [STREPTOMYCIN] | Not Active | – | Not Active | Not Active | Not Active | Not Active | Not Active | Not Active | Not Active | Not Active | Not Active | – | – |
